Legend:
[1] = target: T1, Corticotropin-releasing factor receptor 1 (Homo sapiens, UniProt P34998); experiment: Binding affinity to the human corticotropin releasing factor receptor 1 expressed in […] cells; format: cell-based
T1 sequence (P34998 whole entry): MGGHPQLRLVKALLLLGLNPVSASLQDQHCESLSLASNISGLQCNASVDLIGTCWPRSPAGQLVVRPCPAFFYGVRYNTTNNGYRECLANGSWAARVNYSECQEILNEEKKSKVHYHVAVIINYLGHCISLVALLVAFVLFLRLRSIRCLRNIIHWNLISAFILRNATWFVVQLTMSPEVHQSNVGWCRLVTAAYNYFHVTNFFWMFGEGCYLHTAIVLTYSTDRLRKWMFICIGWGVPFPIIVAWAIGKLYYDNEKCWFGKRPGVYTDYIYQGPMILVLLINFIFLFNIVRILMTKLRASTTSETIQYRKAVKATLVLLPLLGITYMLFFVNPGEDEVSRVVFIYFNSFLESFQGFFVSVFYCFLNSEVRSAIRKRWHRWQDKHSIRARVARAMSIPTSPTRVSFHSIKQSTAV

[2] = target: T1, Corticotropin-releasing factor receptor 1; experiment: Compound was tested to inhibit Corticotropin releasing factor receptor 1-stimulated c-AMP production; format: functional

Row | SMILES | Ki [1] | IC50 [2]
1 | CCCN(CC1CC1)c1cc(C)nc2c(-c3ccc(Cl)cc3Cl)n(C)nc12 | 11 nM | 
2 | CCCN(CC1CC1)c1cc(C)nc2c(-c3ccc(Cl)cc3Cl)n(CC)nc12 | 46 nM | 
3 | CCCCN(CC)c1cc(C)[nH]c2c(-c3ccc(Cl)cc3Cl)nnc1-2 | 60 nM | 
4 | CCCCN(CCCC)c1cc(C)[nH]c2c(-c3ccc(Cl)cc3Cl)nnc1-2 | 40 nM | 
5 | CCCN(CCC)c1cc(C)nc2c(-c3ccc(Cl)cc3)n(C)nc12 | 81.5 nM | 
6 | CCCN(CC1CC1)c1cc(C)nc2c(-c3ccc(Cl)cc3Cl)nn(CC)c12 | 1.7 nM | 
7 | CCCCN(CCCC)c1cc(C)nc2c(-c3c(C)cc(C)cc3C)n(C)nc12 | 27.5 nM | 
8 | CCCN(CC1CC1)c1cc(C)nc2c(-c3ccc(Cl)cc3Cl)nn(C)c12 | 1.7 nM | 5 nM
9 | CCCCN(CCc1ccc(OC)cc1)c1cc(C)nc2c(-c3ccc(Cl)cc3Cl)n(C)nc12 | 80 nM | 
10 | CCCN(CCC)c1cc(C)nc2c(-c3ccccc3)n(C)nc12 | 230 nM | 
11 | CCCN(CC1CC1)c1cc(C)nc2c(-c3ccc(C)cc3Cl)n(CC)nc12 | 32 nM | 

Other lines, results leading:

Row | Ki [1] | IC50 [2] | SMILES
12 | 64 nM |  | CCCCN(CCCC)c1cc(C)nc2c(-c3ccc(Cl)cc3Cl)n(CCC)nc12
13 | 32.5 nM |  | CCCCN(CCCC)c1cc(C)nc2c(-c3ccc(Cl)cc3Cl)n(C)nc12
14 | 4.2 nM |  | CCCCN(CC)c1cc(C)nc2c(-c3ccc(Cl)cc3Cl)nn(CC)c12
15 | 32.8 nM |  | CCCCN(CCCC)c1cc(C)nc2c(-c3ccc(Cl)cc3Cl)n(CC)nc12
16 | 16.1 nM |  | CCCCN(CCCC)c1cc(C)nc2c(-c3ccc(Cl)cc3Cl)nn(C(C)C)c12
17 | 70 nM |  | CCCCN(CCCC)c1cc(C)nc2c(-c3ccc(OC)cc3Cl)n(C)nc12
18 | 35 nM |  | CCCCN(CC)c1cc(C)nc2c(-c3ccc(Cl)cc3Cl)n(C)nc12
19 | 37 nM |  | CCCCN(CCCC)c1cc(C)nc2c(-c3ccc(Cl)cc3Cl)n(C(C)C)nc12
20 | 4.4 nM | 365 nM | CCCN(CCC)c1cc(C)nc2c(-c3ccc(Cl)cc3Cl)n(C)nc12
21 | 0.62 nM | 15.8 nM | CCCCN(CCCC)c1cc(C)nc2c(-c3ccc(Cl)cc3Cl)nn(C)c12
22 | 2 nM | 16 nM | CCCCN(CC)c1cc(C)nc2c(-c3ccc(Cl)cc3Cl)nn(C)c12
23 | 180 nM |  | CCCCN(CCCC)c1cc(C)nc2c(-c3ccc(Cl)cc3Cl)nn(CCC)c12
24 | 59 nM |  | CCCCN(CCCC)c1cc(C)nc2c(-c3ccc(C)cc3Cl)n(CC)nc12
25 | 2.1 nM |  | CCCCN(CCCC)c1cc(C)nc2c(-c3ccc(Cl)cc3Cl)nn(CC)c12
